Results as given in PubChem BioAssay (NCI).
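Tested at 5 concentrations; 48 h exposure; 96-well plates; endpoints linearly interpolated, else capped at highest concentration. GI50 = concentration required for 50% inhibition of growth. Definition used: TGI = concentration required for complete inhibition of growth.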

Tests used:
Experiment in all cases: inhibition of tumour cell growth, NCI panel, 48 h
DU-145 prostate = system: DU-145 prostate
MCF7 breast = system: MCF7 breast
MDA-MB-231 breast = system: MDA-MB-231 breast
NCI/ADR-RES ovarian = system: NCI/ADR-RES ovarian
PC-3 prostate = system: PC-3 prostate
DLD-1 colon = system: DLD-1 colon
HOP-18 NSCLC = system: HOP-18 NSCLC
LXFL 529 NSCLC = system: LXFL 529 NSCLC
DMS 273 small cell lung = system: DMS 273 small cell lung

SMILES | GI50 (DU-145 prostate) | TGI (DU-145 prostate) | GI50 (MCF7 breast) | TGI (MCF7 breast) | GI50 (MDA-MB-231 breast) | TGI (MDA-MB-231 breast) | GI50 (NCI/ADR-RES ovarian) | TGI (NCI/ADR-RES ovarian) | GI50 (PC-3 prostate) | TGI (PC-3 prostate) | TGI (DLD-1 colon) | TGI (HOP-18 NSCLC) | TGI (LXFL 529 NSCLC) | TGI (DMS 273 small cell lung) | GI50 (DLD-1 colon) | GI50 (DMS 273 small cell lung) | GI50 (HOP-18 NSCLC) | GI50 (LXFL 529 NSCLC)
O=C(Nc1ccc(Cl)c(Cl)c1)NS(=O)(=O)c1cnccc1Oc1ccc(F)cc1 | 4.19 µM | 28.8 µM | 2.37 µM | 7.8 µM | 5.5 µM | 38.5 µM | 4.38 µM | > 100 µM | 3.25 µM | > 100 µM | – | – | – | – | – | – | – | –
Cc1cc(I)cc(CN(C)CCCN2CCCC2)c1O | 31.4 µM | > 100 µM | 12.8 µM | 29.5 µM | 18.6 µM | 49.9 µM | 36.7 µM | > 100 µM | 25 µM | 73.7 µM | – | – | – | – | – | – | – | –
Oc1ccccc1-c1nn(CNc2ccccc2Cl)c(=S)o1 | – | – | 40 µM | > 100 µM | > 100 µM | > 100 µM | 18.2 µM | 72.7 µM | 99 µM | > 100 µM | – | – | – | – | – | – | – | –
COC(=O)C1(C)Cc2cc(OC(C)=O)c(OC(C)=O)cc2N1 (centres undefined) | 14.1 µM | > 58.9 µM | 3.74 µM | 21.6 µM | 17.8 µM | 56.5 µM | 16 µM | > 75.5 µM | 9.64 µM | > 72.6 µM | – | – | – | – | – | – | – | –
O=C(O)[C@H](c1ccccc1)[C@@H](C(=O)O)c1ccccc1 | – | > 100 µM | – | > 100 µM | – | > 100 µM | – | > 100 µM | – | > 100 µM | – | – | – | – | – | – | – | –
C=C1C(=O)O[C@H]2[C@H]1CC/C(COC(=O)NCC(C)c1ccc(CC(C)C)cc1)=C\CC[C@@]1(C)O[C@@H]21 (some centres undefined) | 2.93 µM | 6.95 µM | 0.902 µM | 4.18 µM | 0.612 µM | 1.27 µM | 3.54 µM | 10.1 µM | 0.691 µM | 1.76 µM | – | – | – | – | – | – | – | –
CN1/C(=C\C=C\C2=[N+](C)c3ccccc3C2(C)C)C(C)(C)c2ccccc21 | 0.105 µM | 12.1 µM | 0.127 µM | 1.18 µM | 0.248 µM | 1.58 µM | 1.29 µM | 4.97 µM | 0.0455 µM | 5.97 µM | – | – | – | – | – | – | – | –
O=C1CCCCN1CCCCC#Cc1cccc(C#Cc2cccnc2)c1 | 43.2 µM | > 100 µM | 30.4 µM | > 100 µM | 12 µM | 27.7 µM | 17.5 µM | 85.4 µM | 11.6 µM | > 100 µM | – | – | – | – | – | – | – | –
Nc1ccc(/C=C/C(=O)NCc2cc3cc(-c4ccc(C(=O)N5CCC(F)(F)CC5)cc4)cc(-c4ccc(F)cc4)c3o2)cn1 | 4.15 µM | > 100 µM | 14.4 µM | > 100 µM | 15.1 µM | > 100 µM | 4.91 µM | > 100 µM | 0.534 µM | > 100 µM | – | – | – | – | – | – | – | –
COc1ccc(OC)c(Cn2cc3c(c2-c2ccccc2)CCc2cnoc2-3)c1 | 17.4 µM | > 100 µM | 4.47 µM | > 100 µM | 5.98 µM | > 100 µM | 2.48 µM | 7.55 µM | 8.73 µM | > 100 µM | – | – | – | – | – | – | – | –
C/C(=N\NC(=O)CC#N)c1c(O)cc(C)oc1=O | – | – | – | – | – | – | – | – | – | – | > 100 µM | > 100 µM | > 100 µM | – | – | – | – | –
O=C(O)c1ccc(C2C(=O)N[C@@H]3CCC[C@H]23)cc1 (some centres undefined) | – | – | – | – | – | – | – | – | – | – | > 100 µM | > 100 µM | > 100 µM | > 100 µM | – | – | – | –
COC(=O)C(/C(=N\O)C(=O)Nc1cccc(Cl)c1C)c1cnc2ccccc2n1 (centres undefined) | – | > 100 µM | – | > 100 µM | – | > 100 µM | – | > 100 µM | – | > 100 µM | – | – | – | – | – | – | – | –
c1c[nH]c(CN2CCOCC2)n1 | – | > 100 µM | – | > 100 µM | – | > 100 µM | – | > 100 µM | – | > 100 µM | – | – | – | – | – | – | – | –
CC(C)(C)C(=O)[CH-]C(=O)C(C)(C)C.CC(C)(C)C(=O)[CH-]C(=O)C(C)(C)C.CN(C)c1ccc([O-])cc1.CN(C)c1ccc([O-])cc1.[Ti+4] | – | – | – | – | – | – | – | – | – | – | > 100 µM | > 100 µM | > 100 µM | > 100 µM | > 100 µM | > 100 µM | > 100 µM | 57.9 µM
C[N+](C)(C)CC1CCCCC1O (centres undefined) | – | – | – | – | – | – | – | – | – | – | > 100 µM | > 100 µM | > 100 µM | > 100 µM | – | – | – | –
Cn1cc(C2=C(c3cn(C4CCN(Cc5ccccn5)CC4)c4ccccc34)C(=O)NC2=O)c2ccccc21 | > 100 µM | > 100 µM | 3.23 µM | > 100 µM | > 100 µM | > 100 µM | 4.34 µM | > 100 µM | 3.97 µM | > 100 µM | – | – | – | – | – | – | – | –
CC(=O)c1ccc(O)c(CN(C2CCCCC2)C2CCCCC2)c1O | – | > 100 µM | – | > 100 µM | – | > 100 µM | – | > 100 µM | – | > 100 µM | – | – | – | – | – | – | – | –
C=C1C(O)CC[C@]2(C)C1C1OC(C)(C)O[C@]13CC(=O)C(C)=C([C@H]1OC(C)(C)OC12)C3(C)C (some centres undefined) | – | > 100 µM | – | > 100 µM | – | > 100 µM | – | > 100 µM | – | – | – | – | – | – | – | – | – | –
O=C(O)[C@@H](Cc1ccc2ccccc2c1)NC(=O)n1c2ccccc2c2ccccc21 | 3.4 µM | > 100 µM | 2.42 µM | > 100 µM | 3.65 µM | 17.3 µM | 2.83 µM | 9.65 µM | 1.87 µM | 15.8 µM | – | – | – | – | – | – | – | –
C=C1C[C@@H]2CC[C@@]34C[C@H]5O[C@H]6[C@@H](O3)[C@H]3O[C@H](CC[C@@H]3O[C@H]6[C@@H]5O4)CC(=O)C[C@@H]3[C@@H](OC)[C@@H](C[C@H](O)CN)O[C@H]3C[C@H]3O[C@@H](CC[C@@H]1O2)C[C@@H](C)C3=C | < 0.01 µM | > 100 µM | < 0.01 µM | > 100 µM | < 0.01 µM | > 53.5 µM | 2.69 µM | > 100 µM | < 0.01 µM | – | – | – | – | – | – | – | – | –
COc1ccc(C(=O)NCCN(C)C)c2nc3ccccc3nc12 | – | – | – | – | – | – | – | – | – | – | > 65.4 µM | > 82.6 µM | > 37.9 µM | > 100 µM | – | – | – | –
O=C(N/N=C/c1ccccc1O)c1ccccc1 | 3.27 µM | > 100 µM | 2.86 µM | > 100 µM | 5.11 µM | > 100 µM | 1.94 µM | 27.6 µM | 6.53 µM | > 100 µM | – | – | – | – | – | – | – | –
C(=N\Nc1nnn(Cc2ccccc2)n1)/c1ccccc1 | 6.73 µM | > 100 µM | 2.41 µM | > 64.2 µM | 7.54 µM | > 79.6 µM | 0.545 µM | 8.78 µM | 6.82 µM | > 100 µM | – | – | – | – | – | – | – | –
